{"source": "patent US7273848B2", "about": "“Apolipoprotein A-I agonists and their use to treat dyslipidemic disorders” (priority 1997, dated 2007)", "note": "Non-standard residues stand in square brackets, D forms with d. Residues, ends and D or L forms follow the SMILES beside them. No end group written: not given here. Orn = NCCC[C@H](N)C(=O)O; Aib = CC(C)(N)C(=O)O"}
{"molecular_target": "T1, LCAT (purified from human plasma) (Homo sapiens, UniProt P04180)", "T1 construct": "from tissue; host or cells: human plasma", "T1 sequence (P04180 25-440)": "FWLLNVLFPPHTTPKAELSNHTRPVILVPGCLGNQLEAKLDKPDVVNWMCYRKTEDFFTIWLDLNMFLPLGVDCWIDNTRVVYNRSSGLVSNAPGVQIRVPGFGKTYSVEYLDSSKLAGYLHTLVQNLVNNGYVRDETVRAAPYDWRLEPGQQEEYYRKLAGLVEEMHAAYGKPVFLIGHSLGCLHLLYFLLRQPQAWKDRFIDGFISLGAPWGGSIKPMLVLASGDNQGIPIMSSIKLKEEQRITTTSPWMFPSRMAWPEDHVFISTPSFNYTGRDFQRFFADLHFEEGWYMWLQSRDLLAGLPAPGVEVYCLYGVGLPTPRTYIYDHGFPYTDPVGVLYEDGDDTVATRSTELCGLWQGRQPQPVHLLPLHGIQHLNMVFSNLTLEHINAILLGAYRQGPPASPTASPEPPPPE", "assay": "LCAT activation assay", "type": "biochemical", "settings": "LCAT activation as compared with native human ApoA-I (= 100%), equivalent masses", "how_it_was_run": "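Activity was expressed as percentage conversion of radiolabelled cholesterol to cholesteryl ester, normalised to native ApoA-I as 100%. LCAT purified from human plasma was added to peptide-preincubated EPC or POPC/cholesterol (20:1) small unilamellar vesicles at pH 7.4. Specific activity is the peptide concentration reaching the conversion plateau at a fixed timepoint.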", "units": {"ACTIVITY (%) LCAT": "%"}}
{"compound": "CC(C)C[C@H](NC(=O)[C@H](C)NC(=O)[C@H](CCC(=O)O)NC(=O)[C@H](CC(C)C)NC(=O)C(C)(C)NC(=O)[C@H](CCC(=O)O)NC(=O)[C@H](CCCCN)NC(=O)[C@H](CC(C)C)NC(=O)[C@H](CC(C)C)NC(=O)[C@H](CCC(=O)O)NC(=O)[C@H](CCCNC(=N)N)NC(=O)[C@H](Cc1ccccc1)NC(=O)[C@H](CCC(=O)O)NC(=O)[C@H](CC(=O)O)NC(=O)[C@H](CC(C)C)NC(=O)[C@@H](NC(=O)[C@@H]1CCCN1)C(C)C)C(=O)N[C@@H](CCCCN)C(=O)N[C@@H](CCC(N)=O)C(=O)N[C@@H](CCCCN)C(=O)N[C@@H](CC(C)C)C(=O)N[C@@H](CCCCN)C(=O)O", "note": "[compound 68, PVLDEFRELLKEXLEALKQKLK] (H-PVLDEFRELLKE[Aib]LEALKQKLK-OH)", "ACTIVITY (%) LCAT": 14}
{"compound": "GVLDLFRELLNEGLEALKQKLK [compound 13]", "ACTIVITY (%) LCAT": 67}
{"compound": "GIKKFLGSIWKFIKAFVG [peptide 242, reference compound]", "ACTIVITY (%) LCAT": 7}
{"compound": "PLLELFENLLEKLLDALQKKLK [compound 183]", "ACTIVITY (%) LCAT": 6}
{"compound": "Ac-PVLDLFREWLEELKQKLK-NH2 [compound 205]", "ACTIVITY (%) LCAT": 60}
{"compound": "CC(C)C[C@@H](NC(=O)[C@@H](C)NC(=O)[C@@H](CC(=O)O)NC(=O)[C@@H](CC(C)C)NC(=O)[C@@H](CC(C)C)NC(=O)[C@@H](CCCNC(=N)N)NC(=O)[C@@H](CCC(=O)O)NC(=O)[C@@H](CC(C)C)NC(=O)[C@@H](CC(C)C)NC(=O)[C@@H](CC(N)=O)NC(=O)[C@@H](CCC(=O)O)NC(=O)[C@@H](Cc1ccccc1)NC(=O)[C@@H](CC(C)C)NC(=O)[C@@H](CCC(=O)O)NC(=O)[C@@H](CC(C)C)NC(=O)[C@H](NC(=O)[C@H]1CCCN1)C(C)C)C(=O)N[C@H](CCC(N)=O)C(=O)N[C@H](CCCCN)C(=O)N[C@H](CCCCN)C(=O)N[C@H](CC(C)C)C(=O)N[C@H](CCCCN)C(=O)O", "note": "[compound 174, pvlelfenllerlldalqkklk] (H-[dP][dV][dL][dE][dL][dF][dE][dN][dL][dL][dE][dR][dL][dL][dD][dA][dL][dQ][dK][dK][dL][dK]-OH)", "ACTIVITY (%) LCAT": 13}
{"compound": "Ac-PALELFKDLLEELRQRLK-NH2 [compound 208]", "ACTIVITY (%) LCAT": 48}
{"compound": "PVLDEFRELLNELLEALKQKLK [compound 79]", "ACTIVITY (%) LCAT": 9}
{"compound": "PVLELFDNLLDKLLDALQKKLR [compound 180]", "ACTIVITY (%) LCAT": 8}
{"compound": "PLLELFENLLERLLDALQKKLK [peptide 150]", "ACTIVITY (%) LCAT": 57}
{"compound": "Ac-PLLDLFKELLEELKQKLK-NH2 [compound 201]", "ACTIVITY (%) LCAT": 74}
{"compound": "CC(C)C[C@H](NC(=O)[C@H](C)NC(=O)[C@H](CCC(=O)O)NC(=O)[C@H](CC(C)C)NC(=O)C(C)(C)NC(=O)[C@H](CCC(=O)O)NC(=O)[C@H](CC(N)=O)NC(=O)[C@H](CC(C)C)NC(=O)[C@H](CCCCN)NC(=O)[C@H](CCC(=O)O)NC(=O)[C@H](CCCNC(=N)N)NC(=O)[C@H](Cc1ccccc1)NC(=O)[C@H](CCC(=O)O)NC(=O)[C@H](CC(=O)O)NC(=O)[C@H](CC(C)C)NC(=O)[C@H](Cc1c[nH]c2ccccc12)NC(=O)[C@@H]1CCCN1)C(=O)N[C@@H](CCCCN)C(=O)N[C@@H](CCC(N)=O)C(=O)N[C@@H](CCCCN)C(=O)N[C@@H](CC(C)C)C(=O)N[C@@H](CCCCN)C(=O)O", "note": "[compound 64, PWLDEFREKLNEXLEALKQKLK] (H-PWLDEFREKLNE[Aib]LEALKQKLK-OH)", "ACTIVITY (%) LCAT": 15}
{"compound": "PVLELFENLLERLLELLNKKLK [compound 175]", "ACTIVITY (%) LCAT": 13}
{"compound": "PVLDEFREKLNEELEWLKQKLK [compound 122]", "ACTIVITY (%) LCAT": 0}
{"compound": "CC(=O)N1CCC[C@H]1C(=O)N[C@H](C(=O)N[C@@H](CC(C)C)C(=O)N[C@@H](CC(=O)O)C(=O)N[C@@H](CC(C)C)C(=O)N[C@@H](Cc1ccccc1)C(=O)N[C@@H](CCCNC(=N)N)C(=O)N[C@@H](CCC(=O)O)C(=O)N[C@@H](CC(C)C)C(=O)N[C@@H](CC(C)C)C(=O)N[C@@H](CCC(=O)O)C(=O)N[C@@H](CCC(=O)O)C(=O)N[C@@H](CC(C)C)C(=O)N[C@@H](CCCN)C(=O)N[C@@H](CCC(N)=O)C(=O)N[C@@H](CCCN)C(=O)N[C@@H](CC(C)C)C(=O)N[C@@H](CCCN)C(N)=O)C(C)C", "note": "[compound 211, PVLDLFRELLEELOQOLO] (Ac-PVLDLFRELLEEL[Orn]Q[Orn]L[Orn]-NH2)", "ACTIVITY (%) LCAT": 45}
{"compound": "CC(C)C[C@H](NC(=O)[C@H](CCCCN)NC(=O)[C@H](CCC(N)=O)NC(=O)[C@H](CCCCN)NC(=O)C(C)(C)NC(=O)[C@H](C)NC(=O)[C@H](CCC(=O)O)NC(=O)[C@H](CC(C)C)NC(=O)[C@H](CCC(=O)O)NC(=O)[C@H](CCC(=O)O)NC(=O)[C@H](CC(N)=O)NC(=O)[C@H](CC(C)C)NC(=O)[C@H](CCCCN)NC(=O)[C@H](CCC(=O)O)NC(=O)[C@H](CCCNC(=N)N)NC(=O)[C@H](Cc1ccccc1)NC(=O)[C@H](CCC(=O)O)NC(=O)[C@H](CC(=O)O)NC(=O)[C@H](CC(C)C)NC(=O)[C@@H](NC(=O)[C@@H]1CCCN1)C(C)C)C(=O)N[C@@H](CCCCN)C(=O)O", "note": "[compound 119, PVLDEFREKLNEELEAXKQKLK] (H-PVLDEFREKLNEELEA[Aib]KQKLK-OH)", "ACTIVITY (%) LCAT": 0}
{"compound": "CC(C)C[C@H](NC(=O)[C@H](CCCCN)NC(=O)[C@H](CCC(N)=O)NC(=O)[C@H](CCCCN)NC(=O)[C@H](CC(C)C)NC(=O)[C@H](C)NC(=O)[C@H](CCC(=O)O)NC(=O)[C@H](CC(C)C)NC(=O)C(C)(C)NC(=O)[C@H](CCC(=O)O)NC(=O)[C@H](CC(N)=O)NC(=O)[C@H](CC(C)C)NC(=O)[C@H](CCCCN)NC(=O)[C@H](CCC(=O)O)NC(=O)[C@H](CCCNC(=N)N)NC(=O)[C@H](Cc1ccccc1)NC(=O)[C@H](CCC(=O)O)NC(=O)[C@H](CC(=O)O)NC(=O)[C@H](CC(C)C)NC(=O)[C@@H](NC(=O)[C@@H]1CCCN1)C(C)C)C(=O)O", "note": "[compound 58, PVLDEFREKLNEXLEALKQKL~] (H-PVLDEFREKLNE[Aib]LEALKQKL-OH)", "ACTIVITY (%) LCAT": 18}
{"compound": "CC(C)C[C@H](NC(=O)[C@H](C)NC(=O)[C@H](CCC(=O)O)NC(=O)[C@H](CC(C)C)NC(=O)C(C)(C)NC(=O)[C@H](Cc1c[nH]c2ccccc12)NC(=O)[C@H](CC(N)=O)NC(=O)[C@H](CC(C)C)NC(=O)[C@H](CC(C)C)NC(=O)[C@H](CCC(=O)O)NC(=O)[C@H](CCCNC(=N)N)NC(=O)[C@H](Cc1ccccc1)NC(=O)[C@H](CC(C)C)NC(=O)[C@H](CC(=O)O)NC(=O)[C@H](CC(C)C)NC(=O)[C@@H](NC(=O)[C@@H]1CCCN1)C(C)C)C(=O)N[C@@H](CCCCN)C(=O)N[C@@H](CCC(N)=O)C(=O)N[C@@H](CCCCN)C(=O)N[C@@H](CC(C)C)C(=O)N[C@@H](CCCCN)C(=O)O", "note": "[compound 101, PVLDLFRELLNWXLEALKQKLK] (H-PVLDLFRELLNW[Aib]LEALKQKLK-OH)", "ACTIVITY (%) LCAT": 2}
{"compound": "CC(=O)N1CCC[C@H]1C(=O)N[C@H](C(=O)N[C@@H](CC(C)C)C(=O)N[C@@H](CC(=O)O)C(=O)N[C@@H](CC(C)C)C(=O)N[C@@H](Cc1ccccc1)C(=O)N[C@@H](CCCN)C(=O)N[C@@H](CCC(=O)O)C(=O)N[C@@H](CC(C)C)C(=O)N[C@@H](CC(C)C)C(=O)N[C@@H](CCC(=O)O)C(=O)N[C@@H](CCC(=O)O)C(=O)N[C@@H](CC(C)C)C(=O)N[C@@H](CCCN)C(=O)N[C@@H](CCC(N)=O)C(=O)N[C@@H](CCCN)C(=O)N[C@@H](CC(C)C)C(=O)N[C@@H](CCCCN)C(N)=O)C(C)C", "note": "[compound 212, PVLDLFOELLEELOQOLK] (Ac-PVLDLF[Orn]ELLEEL[Orn]Q[Orn]LK-NH2)", "ACTIVITY (%) LCAT": 43}
{"compound": "PVLDLFKELLQELLEALKQKLK [compound 11]", "ACTIVITY (%) LCAT": 72}
{"compound": "CC(C)C[C@H](NC(=O)[C@H](C)NC(=O)[C@H](CCC(=O)O)NC(=O)[C@H](CC(C)C)NC(=O)C(C)(C)NC(=O)[C@H](CCC(=O)O)NC(=O)[C@H](CC(N)=O)NC(=O)[C@H](CC(C)C)NC(=O)[C@H](CCCCN)NC(=O)[C@H](CCC(=O)O)NC(=O)[C@H](CCCNC(=N)N)NC(=O)[C@H](Cc1ccccc1)NC(=O)[C@H](CCC(=O)O)NC(=O)[C@H](CC(=O)O)NC(=O)[C@H](CC(C)C)NC(=O)[C@H](CCC(=O)O)NC(=O)[C@@H]1CCCN1)C(=O)N[C@@H](CCCCN)C(=O)N[C@@H](CCC(N)=O)C(=O)N[C@@H](CCCCN)C(=O)N[C@@H](CC(C)C)C(=O)N[C@@H](CCCCN)C(=O)O", "note": "[compound 117, PELDEFREKLNEXLEALKQKLK] (H-PELDEFREKLNE[Aib]LEALKQKLK-OH)", "ACTIVITY (%) LCAT": 0}
{"compound": "CC(C)C[C@H](NC(=O)[C@H](C)NC(=O)[C@H](CCC(=O)O)NC(=O)[C@H](CC(C)C)NC(=O)C(C)(C)NC(=O)[C@H](CCC(=O)O)NC(=O)[C@H](CC(N)=O)NC(=O)[C@H](CC(C)C)NC(=O)[C@H](CCCCN)NC(=O)[C@H](CCC(=O)O)NC(=O)[C@H](CCCNC(=N)N)NC(=O)[C@H](Cc1ccccc1)NC(=O)[C@H](CCC(=O)O)NC(=O)[C@@H](N)CC(=O)O)C(=O)N[C@@H](CCCCN)C(=O)N[C@@H](CCC(N)=O)C(=O)N[C@@H](CCCCN)C(=O)N[C@@H](CC(C)C)C(=O)N[C@@H](CCCCN)C(=O)O", "note": "[compound 90, ~~~DEFREKLNEXLEALKQKLK] (H-DEFREKLNE[Aib]LEALKQKLK-OH)", "ACTIVITY (%) LCAT": 6}
{"compound": "Ac-PVLDLFREGLEELKQKLK-NH2 [compound 228]", "ACTIVITY (%) LCAT": 0}
{"compound": "VLDLFRELLNEGLEALKQKLK [compound 47]", "ACTIVITY (%) LCAT": 23}
{"compound": "Ac-PALELFKDLLEELRQKLR-NH2 [compound 202]", "ACTIVITY (%) LCAT": 70}
{"compound": "PVLELFLNLLERLLDALQKKLK [compound 156]", "ACTIVITY (%) LCAT": 35}
{"compound": "Ac-PVLELLKELLEELKQKLK-NH2 [compound 207]", "ACTIVITY (%) LCAT": 50}
{"compound": "PVLELFLNLLERLLDAWQKKLK [compound 184]", "ACTIVITY (%) LCAT": 4}
